In patent publication US12318488B2, “Solid dosage form production” (University of Central Lancashire, priority 2018, dated 2025):

Columns and labels:
Assay type in all cases: physicochemical
[1] = Drug content analysis via HPLC of extruded filaments and 3D printed tablets; details: percentage recovery of the active ingredient
Experimental: Filaments were prepared with the target concentration of components as detailed in Table III. 10 g of the dry ingredients (% weights according to Table III) was blended with 2 g of distilled non-ionised water (temporary plasticiser) using a mortar and pestle. The resulting blends were fed to a hot melt extruder at 90° C. and mixed at 100 rpm. A Thermo Scientific HAAKE MiniCTW hot melt extruder (Karlsruhe, Germany) was used to prepare the filaments. The filaments were dried for 1 hour at 100° C. in a drying and heating chamber (Binder Inc., series ED, Tuttinglen, Germany) and then used in 3D printing using the methodology described in Example 2 (i.e., nozzle temperature of 150° C.).
A HPLC method was developed and validated in order to assess the assay of the active substances in the extruded filaments and the 3D printed tablets. Each sample was accurately weighed (approximately 5 mg) and placed in a 1000 ml volumetric flask and dissolved in a mixture of water:acetonitrile:methanol (80:10:10). The solutions were then filtered through an Econofltr 0.2 μm syringe (Agilent Technologies Ltd., Cheadle, UK) and analysed by HPLC.
Lisinopril dihydrate, indapamide, rosuvastatin calcium and amlodipine content was assessed using Agilent UV-HPLC 1260 series (Agilent Technologies, Germany) equipped with a synergy max column (250×4.6 mm, 4 μm particle size), at temperature of 50° C. The analysis was carried out at 210 nm wavelength, flow rate 1 mL/min, injection volume was 100 μl and run time of 35 minutes. The mobile phase consisted of acetonitrile (A) and buffer pH3 (B) (which was prepared by adjustment of the pH of distilled water with phosphoric acid) according to the gradient in Table IV. Drug assay of the multi-layer polypill I (prepared from the uni-matrix) was assessed based on the assumption that each layer corresponds to an equal part of the tablet.

[2] = HPLC analysis of API content in filaments and 3D printed tablets after hot melt extrusion and FDM 3D printing; details: for Residual Percentage (potency of drug following HME): Filament; for Residual Percentage (potency of drug following HME and FDM 3D printing): Tablets
Experimental: Filaments containing individual drugs at different concentration were produced to achieve the individual target dose of each model drug. A Thermo Scientific HAAKE MiniCTW hot melt extruder (Karlsruhe, Germany) was used to prepare the filaments. Blank (drug-free) and individual drug loaded filaments were prepared by blending 10 g of dry ingredients (composition according to Table I) with additional 2 g of distilled water (temporary plasticiser) (Table 1) using mortar and pestle. This blend mixture was then fed to the hot melt extruder at 90° C. and mixed at 100 rpm, nozzle size of 1.5 mm. The filaments were extruded at the same temperature at 35 rpm. The extruded filaments were dried at 100° C. at 0% RH for 1 hour in a FD240 Binder heating chamber (Tuttlingen, Germany). For comparison purposes, a filament was also extruded without water at an extrusion temperature of 180° C. and a mixing rate of 100 rpm.
The tablets printed were designed using Autodesk® 3ds Max Design 2016 software version 18.0 (Autodesk, Inc., USA). The designs were then imported to the computer software in stereolithographic (STL) format. The extruded filaments were printed by a Makerbot 2×3D printer (Makerbot Industries, NY, USA) fitted with 0.4 mm nozzle and controlled by Simplify 3D software version 4.0 (Cincinnati, OH, USA). Printing took place using nozzle and building plate temperatures of 150 and 40° C. respectively. The tablets were printed following a concentric fill pattern and 100% infill with a layer thickness of 166 μm. For comparison reasons, tablets (without addition of water) were printed following the same settings as above but at nozzle temperature of 210° C.
The HPLC analysis was performed using Agilent 1260 series UV-HPLC (Agilent Technologies, Germany) equipped with a Synergi Polar column (250×4.6 mm, 4 μm particle size) (Phenomenex, Macclesfield, UK) at 35° C. The analysis was carried out at a detection wavelength of 254 nm, flow rate of 1 mL/min, injection volume of 100 μL and a 4 minute run time. The mobile phase consisted of a 1:1 mixture of solvent A (acetonitrile) and solvent B (water).
For theophylline, the same UV-HPLC system and column were used as detailed above for hydrocortisone. The mobile phase constituted of 10 mM solution of ammonium acetate buffer, methanol and acetonitrile (86:7:7). Analysis was carried out at a wavelength of 272 nm, temperature of 40° C., flow rate of 1 ml/min, injection volume of 5 μL and a run time of 7 min.
In order to examine the effect of hot melt extrusion (HME) and FDM 3D printing on the integrity of the active pharmaceutical ingredient (API), API-loaded filaments were analysed for API content post drying as well as in the 3D printed tablets. Samples (API loaded filaments or tablets) were accurately weighed and placed in 250 mL of 1:1 water:acetonitrile mixture for 2 hour under sonication. The solutions were filtered through 0.22 μm Millex-GP syringe filters (Merck Millipore, USA) and prepared for HPLC analysis.

[3] = HPLC analysis of hydrocortisone content in extruded filament and FDM 3D printed tablet at different drug loadings; details: for Drug potency in filament average ± SD (n = 3): Eudragit EPO filament, HME 90° C.; for Drug potency in FDM 3D printed average ± SD (n = 3): nozzle 135° C.
Experimental: Filaments were compounded according to the formulation in Table VIII using Thermo Fisher Haake MiniCTW compounder. The extruder speed was set at 35 rpm and temperature at 90° C.
Tablets were constructed with the pre-prepared filaments using a commercial FDM 3D printer equipped with 0.4 mm nozzle size. The templates used to print the tablets were designed in a caplet shape using Autodeski 3ds Maxi Design 2012 software version 14.0 (Autodesk, Inc., USA). The design was saved in a stereo-lithography (.stl) file format and was imported to the 3D software, MakerWare Version 3.9.1.1143 (Makerbot Industries, LLC., USA). Tablets were printed using modified settings of the software for PLA: as follows: type of printer: Replicator 2×; resolution: standard; speed of extruder 90 mm/s while extruding and 150 mm/s while traveling; infill: 100%; height of the layer: […]. No supports or rafts were utilized. The temperatures for the nozzle and build plate of the 3D printer were 135° C. and 60° C. respectively. Blue Scotch painter's tape was applied to the build platform to facilitate the adherence of the printed object during FDM 3D printing.
• Hydrocortisone content was assessed using HPLC using the following conditions: • Mobile phase: water:acetonitrile 1:1. • Stationary phase: Phenomenex® column Synergi Polar RP column with particle size 4 μm with 80 Å • pores, length of 250 mm • Column temperature: 35° C. • Injection Volume: 10 μL. • Flow rate: 1 mL/min • Detection: UV, 254 nm
The blend powder, the extruded filament or the printed tablet were placed into a 500 mL volumetric flask along with HCl. The flasks were sonicated for 30 minutes, followed by allowing the solutions to cool back to room temperature (approximately 30 minutes). A 10 mL syringe was filled with the resulting solution. A filter was added to the syringe; the first 5 mL was discarded, the second 5 mL used to fill a HPLC vial.

[4] = 3D printed at nozzle temperature 150° C.
[5] = HME 90° C., dried 1 hour at 100° C.
[6] = 3D printed at nozzle temperature 150° C., in %
[7] = HME 90° C., dried 1 hour at 100° C., in %
[8] = no temporary plasticiser, 180° C. for HME
[9] = temporary plasticiser (water), 90° C. for HME
[10] = no temporary plasticiser, 180° C. for HME followed by 210° C. for 3D-printing
[11] = temporary plasticiser, 90° C. for HME followed by 150° C. for 3D-printing

## CCOC(=O)C1=C(COCCN)NC(C)=C(C(=O)OC)C1c1ccccc1Cl (centres unmarked) [Amlodipine besylate, amlodipine besylate]
[1]; [4]
  Drug contents in tablets, Amlodipine: 90.68 ± 2.28
[1]; [5]
  Drug contents in filament, Amlodipine: 97.89 ± 1.94

## CC1Cc2ccccc2N1NC(=O)c1ccc(Cl)c(S(N)(=O)=O)c1 (centres unmarked) [Indapamide, indapamide]
[1]; [6]
  Drug contents in tablets, Indapamide: 96.06 ± 2.06
[1]; [7]
  Drug contents in filament, Indapamide: 93.32 ± 1.67

## C[C@]12CCC(=O)C=C1CC[C@@H]1[C@@H]2[C@@H](O)C[C@@]2(C)[C@H]1CC[C@]2(O)C(=O)CO [Hydrocortisone]
[2]; [8]
  Residual Percentage (potency of drug following HME): 19.98%
[2]; no temporary plasticiser, 180° C. for HME, listed as hydrocortisone
  Residual Percentage (potency of drug following HME): 20%
[2]; [9]
  Residual Percentage (potency of drug following HME): 100.9%
[2]; temporary plasticiser (water), 90° C. for HME, listed as hydrocortisone
  Residual Percentage (potency of drug following HME): 100%
[2]; [10]
  Residual Percentage (potency of drug following HME and FDM 3D printing): 3.02%
[2]; no temporary plasticiser, 180° C. for HME followed by 210° C. for 3D-printing, listed as hydrocortisone
  Residual Percentage (potency of drug following HME and FDM 3D printing): 3.02%
[2]; [11]
  Residual Percentage (potency of drug following HME and FDM 3D printing): 48.6%
[2]; temporary plasticiser, 90° C. for HME followed by 150° C. for 3D-printing, listed as hydrocortisone
  Residual Percentage (potency of drug following HME and FDM 3D printing): 48.6%
[3]; Drug Concentration 1%
  Drug potency in filament average ± SD (n = 3): 85.97 ± 0.14%
  Drug potency in FDM 3D printed average ± SD (n = 3): 75.13 ± 0.62%
[3]; Drug Concentration 5%
  Drug potency in filament average ± SD (n = 3): 92.25 ± 0.21%
  Drug potency in FDM 3D printed average ± SD (n = 3): 95.4 ± 4.3%
[3]; Drug Concentration 10%
  Drug potency in filament average ± SD (n = 3): 99 ± 0.34%
  Drug potency in FDM 3D printed average ± SD (n = 3): 98.2 ± 0.45%

## NCCCC[C@H](N[C@@H](CCc1ccccc1)C(=O)O)C(=O)N1CCC[C@H]1C(=O)O [Lisinopril dihydrate]
[1]; [4]
  Drug contents in tablets, Lisinopril: 87.8 ± 1.5
[1]; [5]
  Drug contents in filament, Lisinopril: 93.9 ± 1.66

## CC(C)c1nc(N(C)S(C)(=O)=O)nc(-c2ccc(F)cc2)c1/C=C/[C@@H](O)C[C@@H](O)CC(=O)[O-].CC(C)c1nc(N(C)S(C)(=O)=O)nc(-c2ccc(F)cc2)c1/C=C/[C@@H](O)C[C@@H](O)CC(=O)[O-].[Ca+2] [Rosuvastatin calcium, rosuvastatin calcium]
[1]; [6]
  Drug contents in tablets, Rosuvastatin: 95.4 ± 2.37
[1]; [7]
  Drug contents in filament, Rosuvastatin: 98.2 ± 1.09

## Cn1c(=O)c2[nH]cnc2n(C)c1=O [Theophylline]
[2]; [8]
  Residual Percentage (potency of drug following HME): 100.61%
[2]; [9]
  Residual Percentage (potency of drug following HME): 100%
[2]; [10]
  Residual Percentage (potency of drug following HME and FDM 3D printing): 100.53%
[2]; [11]
  Residual Percentage (potency of drug following HME and FDM 3D printing): 100.2%
